We go through one compound from US8814930B2, “Biodegradable endoprosthesis and methods for their fabrication” (Elixir Medical Corporation, priority 2007, dated 2014).

This data set is described as follows: Pharmacokinetic release profile of novolimus from a stent (FIG. 35). Type of data set: in vivo.

Molecules are shown by their SMILES.

Turning to `CO[C@@H]1C[C@H](C[C@@H](C)[C@@H]2CC(=O)[C@H](C)/C=C(\C)[C@@H](O)[C@@H](OC)C(=O)[C@H](C)C[C@H](C)/C=C/C=C/C=C(\C)[C@@H](O)C[C@@H]3CC[C@@H](C)[C@@](O)(O3)C(=O)C(=O)N3CCCC[C@H]3C(=O)O2)CC[C@H]1O` [novolimus, 16-O-desmethyl-rapamycin], the “therapeutic tissue drug concentration” value (at 90 days) is reported as 0.5 ng/mg. For the same compound, the drug released entry (in one month, from a stent) is given as “over 85%”.
